Experimental findings from patent US11154529B2, “Phosphaplatin liquid formulations” (Phosplatin Therapeutics Inc., priority 2016, dated 2021) are described below.

This series is described as follows: Decrease in potency by HPLC of aqueous 1 mg/mL (R,R)-pyrodach-2 solutions in a variety of buffers at ambient temperature. The class given is physicochemical. From the text: Chem. 47, 7942 (2008)). Thus, simple dissolution of (R,R)-pyrodach-2 affords an acidic solution. […] At higher pHs, where the acid groups of (R,R)-pyrodach-2 are ionized, the solubility of (R,R)-pyrodach-2 increases. In addition, deprotonation of the acid groups in (R,R)-pyrodach-2 dramatically reduces the rate of hydrolytic degradation. […] Thus, controlling the pH of an aqueous solution in the physiological pH range, much less the accurate and reproducible preparation of aqueous (R,R)-pyrodach-2 solutions in this pH range by pH adjustment of an aqueous solution of (R,R)-pyrodach-2 with hydroxide base, is extremely difficult. […] This presents a unique challenge as the pyrophosphate ligand in (R,R)-pyrodach-2 is kinetically labile in solution and can potentially undergo reaction with anions present in many buffers. […] [table]

As for `O=P1(O)OP(=O)(O)[O][Pt]2([NH][C@@H]3CCCC[C@H]3[NH]2)[O]1` (stereo partly drawn) [(R,R)-pyrodach-2, (R,R)-trans-1,2-cyclohexanediamine-(dihydrogenpyrophosphato)platinum(II)], the “Decrease in Potency” value reads like this: (Acetate 20 mM, pH 5.32, 7 days) 13.5%; (Citric acid 20 mM, pH 6.51, 4 days) 1.9%; (Citric acid 20 mM, pH 6.51, 11 days) 3.9%; (L-arginine 20 mM, pH 7.72, 4 days) 4.0%; (L-arginine 20 mM, pH 7.72, 11 days) 10%; (NH4HCO3 20 mM, pH 7.68, 14 days) 8.0%. For the same compound, the “Decrease in Potency” value was found to be 18.0% (NH4HCO3 50 mM, pH 7.83, 14 days); 47.1% (NH4HCO3 100 mM, pH 7.94, 14 days); 1.9% (Triethanolamine 20 mM, pH 7.97, 4 days); 5.7% (Triethanolamine 20 mM, pH 7.97, 11 days).
